Reference: patent US6706663B2, “Herbicidal 3-heterocyclic substituted benzisothiazole and benzisoxazole compounds” (Wyeth, priority 2000, dated 2004)

Key:
[1] = tested on: IPOHE (Ipomoea hederacea); assay: Postemergence herbicidal evaluation; type: in vivo, (L.) Jacq.; conditions: postemergence
In short: (§1)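 Seedlings grown about two weeks in flats, sprayed, then kept under standard greenhouse care. Rated visually 4–5 weeks after treatment on a 0–9 scale (stand, vigour, malformation, size, chlorosis, overall appearance) relative to untreated control; repeat tests averaged.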

[2] = tested on: ABUTH (Abutilon theophrasti); assay: Preemergence herbicidal evaluation; type: in vivo, Medic.; conditions: rated 4-5 weeks after treatment
[3] = tested on: ORYSAT (Rice, Tebonnet); assay: Flooded paddy, post-transplant rice tolerance; type: in vivo, Oryza sativa, (L.) Tebonnet; conditions: flooded paddy, post-transplant rice, rated 3-4 weeks after treatment, 0-9 rating scale
In short: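 Ten-day-old seedlings, 2/pot, silt loam; flood kept 1.5–3 cm over soil; herbicide applied post-transplant; greenhouse; score 0–9 visual vs control.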

[4] = tested on: SAGPY (Sagittaria pygmaea); assay: Flooded paddy, preemergence weed control; type: in vivo, L.; conditions: rated 3-4 weeks after treatment, 0-9 rating scale
In short: (§2)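 Silt loam, sowing depth ≤0.5 cm; permanent flood 1.5–3 cm above soil; greenhouse culture after treatment. Readout: 0-9 visual scale (stand, vigor, malformation, size, chlorosis, appearance) vs control.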

[5] = tested on: CASOB (Cassia obtusifolia); assay: Preemergence herbicidal evaluation; type: in vivo, L.; conditions: rated 4-5 weeks after treatment
In short: (§3)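 Seeds planted in potting soil cups and sprayed preemergence with aqueous acetone compound solution. Greenhouse-grown; rated 4–5 weeks after treatment on a 0-9 visual scale (stand, vigor, malformation, size, chlorosis, appearance) versus control.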

[6] = tested on: AMBEL (Ambrosia artemisifolia); assay: Preemergence herbicidal evaluation; type: in vivo, L.; conditions: rated 4-5 weeks after treatment
In short: as §3

[7] = tested on: CHEAL (Chenopodium album); assay: Preemergence herbicidal evaluation; type: in vivo, L.; conditions: rated 4-5 weeks after treatment
In short: as §3

[8] = tested on: ORYSAT (Rice, Tebonnet); assay: Postemergence herbicidal evaluation; type: in vivo, Oryza sativa, (L.) Tebonnet; conditions: postemergence
In short: as §1

[9] = tested on: ORYSAT (Rice, Tebonnet); assay: Preemergence herbicidal evaluation; type: in vivo, Oryza sativa, (L.) Tebonnet; conditions: rated 4-5 weeks after treatment
[10] = tested on: CYPSE (Cyperus serotinus); assay: Flooded paddy, preemergence weed control; type: in vivo, Rottb.; conditions: rated 3-4 weeks after treatment, 0-9 rating scale
In short: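 Seeds or propagules were planted 0.5 cm deep in silt loam and flooded to 1.5–3 cm. Compounds in 50/50 v/v aqueous/acetone were pipetted into the flood water at about 0.0080 to 0.1250 kg/ha. After 3–4 weeks in the greenhouse, effect was rated visually on a 0–9 scale versus untreated control.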

[11] = tested on: TRZAWR (Wheat, Winter, cv Riband); assay: Postemergence herbicidal evaluation; type: in vivo, Triticum aestivum; conditions: postemergence
In short: as §1

[12] = tested on: CASOB (Cassia obtusifolia); assay: Postemergence herbicidal evaluation; type: in vivo, L.; conditions: postemergence
In short: as §1

[13] = tested on: AMBEL (Ambrosia artemisifolia); assay: Postemergence herbicidal evaluation; type: in vivo, L.; conditions: postemergence
In short: as §1

[14] = tested on: CHEAL (Chenopodium album); assay: Postemergence herbicidal evaluation; type: in vivo, L.; conditions: postemergence
In short: as §1

[15] = tested on: TRZAWR (Wheat, Winter, cv Riband); assay: Preemergence herbicidal evaluation; type: in vivo, Triticum aestivum; conditions: rated 4-5 weeks after treatment
In short: as §3

[16] = tested on: ECHORC (Echinochloa oryzoides); assay: Flooded paddy, preemergence weed control; type: in vivo, Echinochloa oryzoides (Ard.) Fritsch.; conditions: rated 3-4 weeks after treatment, 0-9 rating scale
In short: as §2

[17] = tested on: ABUTH (Abutilon theophrasti); assay: Postemergence herbicidal evaluation; type: in vivo, Medic.; conditions: postemergence
In short: as §1

[18] = tested on: ECHCG (Echinochloa crus-galli); assay: Postemergence herbicidal evaluation; type: in vivo, (L.) Beau; conditions: postemergence
In short: as §1

[19] = tested on: ZEAMX (Corn, Field); assay: Postemergence herbicidal evaluation; type: in vivo, Zea mays, L.; conditions: postemergence
In short: as §1

CC1CC(C)(C)OC(c2nsc3ccc(-n4c(=O)cc(C(F)(F)F)n(C)c4=O)cc23)O1 (centres unmarked) [Compound 55, 1-methyl-6-(trifluoromethyl)-3-[3-(4,4,6-trimethyl-m-dioxan-2-yl)-1,2-benzisothiazol-5-yl]uracil]
4.5: herbicidal rating, ORYSAT (rice tolerance) ([3]; rate 0.0320 kg/ha) | ORYSAT herbicidal rating ([8]; rate 0.0620 kg/ha) | ZEAMX herbicidal rating ([19]; rate 0.0320 kg/ha)
5.0: TRZAWR herbicidal rating ([11]; rate 0.0620 kg/ha) | CHEAL herbicidal rating ([14]; rate 0.0320 kg/ha) | herbicidal rating, ECHORC ([16]; rate 0.0080 kg/ha) | ZEAMX herbicidal rating ([19]; rate 0.0620 kg/ha)
4.0: CHEAL herbicidal rating ([14]; rate 0.0620 kg/ha)
3.0: herbicidal rating, ORYSAT (rice tolerance) ([3]; rate 0.0080 kg/ha) | ORYSAT herbicidal rating ([8]; rate 0.0320 kg/ha) | TRZAWR herbicidal rating ([11]; rate 0.0320 kg/ha)
8.0: Preemergence herbicidal rating TRZAWR ([15]; Rate 0.0620 kg/ha)
7.0: herbicidal rating, SAGPY ([4]; rate 0.1250 kg/ha) | Preemergence herbicidal rating CASOB ([5]; Rate 0.2500 kg/ha)
1.0: CASOB herbicidal rating ([12]; rate 0.0620 kg/ha) | ECHCG herbicidal rating ([18]; rate 0.0320 kg/ha) | ECHCG herbicidal rating ([18]; rate 0.0620 kg/ha)
3.5: Preemergence herbicidal rating CASOB ([5]; Rate 0.0620 kg/ha)
9.0: IPOHE herbicidal rating ([1]; rate 0.0320 kg/ha) | IPOHE herbicidal rating ([1]; rate 0.0620 kg/ha) | Preemergence herbicidal rating ABUTH ([2]; Rate 0.0620 kg/ha) | Preemergence herbicidal rating ABUTH ([2]; Rate 0.1250 kg/ha) | Preemergence herbicidal rating ABUTH ([2]; Rate 0.2500 kg/ha) | herbicidal rating, ORYSAT (rice tolerance) ([3]; rate 0.1250 kg/ha) | Preemergence herbicidal rating AMBEL ([6]; Rate 0.0620 kg/ha) | Preemergence herbicidal rating AMBEL ([6]; Rate 0.1250 kg/ha) | Preemergence herbicidal rating AMBEL ([6]; Rate 0.2500 kg/ha) | Preemergence herbicidal rating CHEAL ([7]; Rate 0.0620 kg/ha) | Preemergence herbicidal rating CHEAL ([7]; Rate 0.1250 kg/ha) | Preemergence herbicidal rating CHEAL ([7]; Rate 0.2500 kg/ha) | Preemergence herbicidal rating ORYSAT ([9]; Rate 0.1250 kg/ha) | Preemergence herbicidal rating ORYSAT ([9]; Rate 0.2500 kg/ha) | herbicidal rating, CYPSE ([10]; rate 0.0320 kg/ha) | herbicidal rating, CYPSE ([10]; rate 0.1250 kg/ha) | AMBEL herbicidal rating ([13]; rate 0.0320 kg/ha) | AMBEL herbicidal rating ([13]; rate 0.0620 kg/ha) | Preemergence herbicidal rating TRZAWR ([15]; Rate 0.1250 kg/ha) | Preemergence herbicidal rating TRZAWR ([15]; Rate 0.2500 kg/ha) | herbicidal rating, ECHORC ([16]; rate 0.1250 kg/ha) | ABUTH herbicidal rating ([17]; rate 0.0320 kg/ha) | ABUTH herbicidal rating ([17]; rate 0.0620 kg/ha)
2.0: CASOB herbicidal rating ([12]; rate 0.0320 kg/ha)
0.0: herbicidal rating, SAGPY ([4]; rate 0.0080 kg/ha) | herbicidal rating, SAGPY ([4]; rate 0.0320 kg/ha)
7.5: Preemergence herbicidal rating CASOB ([5]; Rate 0.1250 kg/ha) | Preemergence herbicidal rating ORYSAT ([9]; Rate 0.0620 kg/ha) | herbicidal rating, ECHORC ([16]; rate 0.0320 kg/ha)

Cn1c(C(F)(F)F)cc(=O)n(-c2ccc3snc(C4OC(C)(C)C(C)(C)O4)c3c2)c1=O [Compound 56, 1-methyl-3-[3-(4,4,5,5-tetramethyl-1,3-dioxolan-2-yl)-1,2-benzisothiazol-5-yl]-6-(trifluoromethyl)uracil]
6.3: herbicidal rating, SAGPY ([4]; rate 0.1250 kg/ha)
3.5: ORYSAT herbicidal rating ([8]; rate 0.0320 kg/ha) | TRZAWR herbicidal rating ([11]; rate 0.0320 kg/ha)
8.0: herbicidal rating, ORYSAT (rice tolerance) ([3]; rate 0.1250 kg/ha)
2.0: ECHCG herbicidal rating ([18]; rate 0.0320 kg/ha)
9.0: IPOHE herbicidal rating ([1]; rate 0.0320 kg/ha) | IPOHE herbicidal rating ([1]; rate 0.0620 kg/ha) | Preemergence herbicidal rating ABUTH ([2]; Rate 0.0620 kg/ha) | Preemergence herbicidal rating ABUTH ([2]; Rate 0.1250 kg/ha) | Preemergence herbicidal rating ABUTH ([2]; Rate 0.2500 kg/ha) | Preemergence herbicidal rating CASOB ([5]; Rate 0.2500 kg/ha) | Preemergence herbicidal rating AMBEL ([6]; Rate 0.0620 kg/ha) | Preemergence herbicidal rating AMBEL ([6]; Rate 0.1250 kg/ha) | Preemergence herbicidal rating AMBEL ([6]; Rate 0.2500 kg/ha) | Preemergence herbicidal rating CHEAL ([7]; Rate 0.0620 kg/ha) | Preemergence herbicidal rating CHEAL ([7]; Rate 0.1250 kg/ha) | Preemergence herbicidal rating CHEAL ([7]; Rate 0.2500 kg/ha) | herbicidal rating, CYPSE ([10]; rate 0.1250 kg/ha) | AMBEL herbicidal rating ([13]; rate 0.0320 kg/ha) | AMBEL herbicidal rating ([13]; rate 0.0620 kg/ha) | CHEAL herbicidal rating ([14]; rate 0.0620 kg/ha) | herbicidal rating, ECHORC ([16]; rate 0.0080 kg/ha) | herbicidal rating, ECHORC ([16]; rate 0.0320 kg/ha) | herbicidal rating, ECHORC ([16]; rate 0.1250 kg/ha) | ABUTH herbicidal rating ([17]; rate 0.0320 kg/ha) | ABUTH herbicidal rating ([17]; rate 0.0620 kg/ha)
6.0: Preemergence herbicidal rating ORYSAT ([9]; Rate 0.1250 kg/ha) | Preemergence herbicidal rating ORYSAT ([9]; Rate 0.2500 kg/ha) | Preemergence herbicidal rating TRZAWR ([15]; Rate 0.0620 kg/ha) | Preemergence herbicidal rating TRZAWR ([15]; Rate 0.1250 kg/ha)
4.3: herbicidal rating, ORYSAT (rice tolerance) ([3]; rate 0.0320 kg/ha)
5.0: Preemergence herbicidal rating ORYSAT ([9]; Rate 0.0620 kg/ha) | ZEAMX herbicidal rating ([19]; rate 0.0320 kg/ha)
3.0: CASOB herbicidal rating ([12]; rate 0.0320 kg/ha)
1.0: herbicidal rating, ORYSAT (rice tolerance) ([3]; rate 0.0080 kg/ha)
4.0: ECHCG herbicidal rating ([18]; rate 0.0620 kg/ha)
4.5: Preemergence herbicidal rating CASOB ([5]; Rate 0.0620 kg/ha) | ORYSAT herbicidal rating ([8]; rate 0.0620 kg/ha) | TRZAWR herbicidal rating ([11]; rate 0.0620 kg/ha)
0.0: herbicidal rating, SAGPY ([4]; rate 0.0080 kg/ha) | herbicidal rating, SAGPY ([4]; rate 0.0320 kg/ha) | herbicidal rating, CYPSE ([10]; rate 0.0080 kg/ha)
5.5: Preemergence herbicidal rating CASOB ([5]; Rate 0.1250 kg/ha) | herbicidal rating, CYPSE ([10]; rate 0.0320 kg/ha) | ZEAMX herbicidal rating ([19]; rate 0.0620 kg/ha)
7.0: CASOB herbicidal rating ([12]; rate 0.0620 kg/ha) | CHEAL herbicidal rating ([14]; rate 0.0320 kg/ha) | Preemergence herbicidal rating TRZAWR ([15]; Rate 0.2500 kg/ha)
